# Reference: publication PMC7413254 (Nature Communications, 2020)
# Like-named read-outs stand apart in the source and are kept apart here.
# How the values were obtained:
# non-expressing oocytes [1] = assay: cells; type: cell-based, Xenopus laevis; settings: non-expressing oocytes, total [3H]CQ transport, normalised to the oocyte type control
# Outline: (§1)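 Each treatment used ten oocytes, repeated in at least four experiments on different days with oocytes from different frogs. Conditions: ND96 pH 5.5, 27.5 °C, 1.5 h; read-out by scintillation counting.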
# PfCRT^3D7 [2] = biological target: T1, PfCRT^3D7 (Plasmodium falciparum, UniProt Q8IBZ9); assay: cell-based; type: cell-based; settings: PfCRT3D7 oocytes, total [3H]CQ transport, normalised to the oocyte type control
# Outline: as §1
# PfCRT^Dd2 [3] = biological target: T2, PfCRT^Dd2 (Plasmodium falciparum, UniProt Q9N623, A220S/I356T/K76T/M74I/N326S/N75E/Q271E/R371I); assay: [3H]CQ uptake into Xenopus oocytes, cis-inhibition by unlabelled solute; type: cell-based; settings: PfCRTDd2 oocytes, background [3H]CQ accumulation subtracted, normalised to oocyte type control
# Outline: as §1
# PfCRT^Ecu1110 [4] = biological target: T3, PfCRT^Ecu1110 (Plasmodium falciparum, UniProt Q9N623, A220S/I356L/K76T/N326D); assay: as above; type: cell-based; settings: for Uptake of [3H]CQ (% PfCRTEcu1110 control), cis-inhibition / PfCRT-mediated [3H]CQ transport, cis-inhibition (% PfCRTEcu1110 control): PfCRTEcu1110 oocytes; for Uptake of [3H]CQ (% PfCRTEcu1110 control), cis-inhibition: total [3H]CQ transport, normalised to the oocyte type control; for PfCRT-mediated [3H]CQ transport, cis-inhibition (% PfCRTEcu1110 control): background [3H]CQ accumulation subtracted, normalised to oocyte type control; for [3H]CQ transport (% PfCRTEcu1110 control), cis-inhibition, PfCRTEcu1110: PfCRT-mediated component (background subtracted), sheet title says normalised to PfCRTDd2 control, mean ± SEM, SEM
# Outline: as §1
# non-expressing oocytes [5] = type: cell-based, Xenopus laevis; settings: non-expressing oocytes, total [3H]CQ transport, normalised to the oocyte type control
# Outline: (§2)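 Oocytes (ten per treatment, ≥4 independent frogs/days) were preloaded by injecting VF-6 in 25 nL ND96 at pH 5.0, 5.5, 6.0 or 7.0, or Na^+-free choline buffer, then uptake run 1.5 h, 27.5 °C, ND96 pH 5.5 by default. Internal concentrations assumed ~400 nL oocyte volume.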
# PfCRT^3D7 [6] = biological target: T1, PfCRT^3D7; assay: cell-based; type: cell-based; settings: PfCRT3D7 oocytes; for Uptake of [3H]CQ (% PfCRT3D7 control), trans-stimulation: total [3H]CQ transport, normalised to the oocyte type control; for PfCRT-mediated [3H]CQ transport, trans-stimulation (% PfCRT3D7 control): normalised to oocyte type control
# Outline: as §2
# PfCRT^Dd2 [7] = biological target: T2, PfCRT^Dd2; assay: cell-based; type: cell-based; settings: for Uptake of [3H]CQ (% PfCRTDd2 control), trans-stimulation / PfCRT-mediated [3H]CQ transport, trans-stimulation (% PfCRTDd2 control): PfCRTDd2 oocytes; for Uptake of [3H]CQ (% PfCRTDd2 control), trans-stimulation: total [3H]CQ transport, normalised to the oocyte type control; for PfCRT-mediated [3H]CQ transport, trans-stimulation (% PfCRTDd2 control): normalised to oocyte type control; for [3H]CQ transport (% PfCRTDd2 control), trans-stimulation, PfCRTDd2: PfCRT-mediated component (background subtracted), mean ± SEM, SEM
# Outline: as §2
# PfCRT^Ecu1110 [8] = biological target: T3, PfCRT^Ecu1110; assay: cell-based; type: cell-based; settings: for Uptake of [3H]CQ (% PfCRTEcu1110 control), trans-stimulation / PfCRT-mediated [3H]CQ transport, trans-stimulation (% PfCRTEcu1110 control): PfCRTEcu1110 oocytes; for Uptake of [3H]CQ (% PfCRTEcu1110 control), trans-stimulation: total [3H]CQ transport, normalised to the oocyte type control; for PfCRT-mediated [3H]CQ transport, trans-stimulation (% PfCRTEcu1110 control): normalised to oocyte type control; for [3H]CQ transport (% PfCRTDd2 control), trans-stimulation, PfCRTEcu1110: PfCRT-mediated component (background subtracted), sheet title says normalised to PfCRTDd2 control, mean ± SEM, SEM
# Outline: as §2
# PfNT1 = biological target: T4, PfNT1 (Plasmodium falciparum, UniProt Q8IDM6); assay: cell-based; type: cell-based; settings: PfNT1 oocytes, total [3H]CQ transport, normalised to the oocyte type control
# T4 construct: expressed in transfected cells; host or cells: Xenopus laevis oocytes (stage V-VI), cRNA-injected
# Outline: as §2
# [9] = [test solute]i = 45 mM (30 mM for some solutes due to solubility)
# [10] = [test solute]i = 5 mM (intracellular)
# [11] = [test solute]i = 45 mM (intracellular; 30 mM for some solutes due to solubility)
# [12] = [test solute]i = 5 mM (injected)
# T2 sequence (Q9N623 whole entry A220S/I356T/K76T/M74I/N326S/N75E/Q271E/R371I): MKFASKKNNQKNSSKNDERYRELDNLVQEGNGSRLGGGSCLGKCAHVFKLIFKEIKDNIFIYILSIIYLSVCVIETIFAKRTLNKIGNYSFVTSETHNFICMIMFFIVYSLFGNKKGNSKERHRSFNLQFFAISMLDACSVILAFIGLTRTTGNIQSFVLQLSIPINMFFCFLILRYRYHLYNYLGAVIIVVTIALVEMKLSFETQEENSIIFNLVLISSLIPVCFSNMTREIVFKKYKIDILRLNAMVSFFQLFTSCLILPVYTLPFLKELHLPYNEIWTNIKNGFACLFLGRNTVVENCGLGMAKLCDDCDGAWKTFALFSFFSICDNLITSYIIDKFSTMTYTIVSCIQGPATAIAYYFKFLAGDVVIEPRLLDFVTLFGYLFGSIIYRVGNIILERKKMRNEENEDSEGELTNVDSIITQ
# T1 sequence (Q8IBZ9 59-398): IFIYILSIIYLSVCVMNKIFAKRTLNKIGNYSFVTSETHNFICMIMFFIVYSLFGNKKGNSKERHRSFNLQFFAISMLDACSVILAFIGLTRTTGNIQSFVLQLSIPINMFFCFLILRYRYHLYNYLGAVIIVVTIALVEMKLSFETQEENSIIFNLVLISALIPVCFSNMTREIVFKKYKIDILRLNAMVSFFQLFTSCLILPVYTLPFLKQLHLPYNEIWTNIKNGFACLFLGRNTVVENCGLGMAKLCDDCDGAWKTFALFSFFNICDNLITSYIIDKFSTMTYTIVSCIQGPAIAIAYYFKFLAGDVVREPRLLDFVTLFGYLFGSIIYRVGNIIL
# T3 sequence (Q9N623 whole entry A220S/I356L/K76T/N326D): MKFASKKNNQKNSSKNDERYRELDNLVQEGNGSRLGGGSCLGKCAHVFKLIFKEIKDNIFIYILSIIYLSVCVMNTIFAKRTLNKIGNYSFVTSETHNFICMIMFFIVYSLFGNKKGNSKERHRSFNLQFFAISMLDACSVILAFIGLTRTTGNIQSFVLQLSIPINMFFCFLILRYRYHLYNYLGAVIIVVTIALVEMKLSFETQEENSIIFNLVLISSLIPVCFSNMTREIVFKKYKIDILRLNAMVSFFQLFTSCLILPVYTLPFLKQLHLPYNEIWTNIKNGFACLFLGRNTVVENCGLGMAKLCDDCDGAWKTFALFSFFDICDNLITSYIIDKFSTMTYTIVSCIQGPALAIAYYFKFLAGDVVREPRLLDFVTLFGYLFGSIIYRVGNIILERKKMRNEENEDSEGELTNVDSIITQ
# T4 sequence (Q8IDM6 whole entry): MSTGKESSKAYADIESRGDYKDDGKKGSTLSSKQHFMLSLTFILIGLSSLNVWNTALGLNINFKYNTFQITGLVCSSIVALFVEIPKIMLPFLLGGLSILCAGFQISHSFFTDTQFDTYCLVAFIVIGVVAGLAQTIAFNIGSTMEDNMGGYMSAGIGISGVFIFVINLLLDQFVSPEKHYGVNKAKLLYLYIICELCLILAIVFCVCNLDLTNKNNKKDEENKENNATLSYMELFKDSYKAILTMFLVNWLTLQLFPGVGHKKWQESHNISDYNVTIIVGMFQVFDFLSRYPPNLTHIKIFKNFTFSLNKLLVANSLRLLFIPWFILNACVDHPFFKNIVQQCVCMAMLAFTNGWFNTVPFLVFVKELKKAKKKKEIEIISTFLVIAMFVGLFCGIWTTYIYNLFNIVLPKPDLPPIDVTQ
substance,measurement,setting,value
"PNAL [PL-4, host-derived peptide]","Uptake of [3H]CQ (% non-expressing oocyte control), cis-inhibition",non-expressing oocytes [1]; [test solute] = 1 mM,100 ± 4.7 % non-expressing oocyte control
same,"Uptake of [3H]CQ (% non-expressing oocyte control), cis-inhibition",non-expressing oocytes [1]; [test solute] = 2 mM,99 ± 3.6 % non-expressing oocyte control
same,"Uptake of [3H]CQ (% PfCRT3D7 control), cis-inhibition",PfCRT^3D7 [2]; [test solute] = 0.5 mM,99 ± 5.3 % PfCRT3D7 control
same,"Uptake of [3H]CQ (% PfCRT3D7 control), cis-inhibition",PfCRT^3D7 [2]; [test solute] = 1 mM,98 ± 5.7 % PfCRT3D7 control
same,"Uptake of [3H]CQ (% PfCRT3D7 control), cis-inhibition",PfCRT^3D7 [2]; [test solute] = 2 mM,101 ± 6.3 % PfCRT3D7 control
same,"PfCRT-mediated [3H]CQ transport, cis-inhibition (% PfCRTDd2 control)",PfCRT^Dd2 [3]; [test solute] = 0.5 mM,68 ± 2.6 % PfCRTDd2 control
same,"PfCRT-mediated [3H]CQ transport, cis-inhibition (% PfCRTDd2 control)",PfCRT^Dd2 [3]; [test solute] = 1 mM,55 ± 4.1 % PfCRTDd2 control
same,"PfCRT-mediated [3H]CQ transport, cis-inhibition (% PfCRTDd2 control)",PfCRT^Dd2 [3]; [test solute] = 2 mM,39 ± 1.8 % PfCRTDd2 control
same,"Uptake of [3H]CQ (% PfCRTEcu1110 control), cis-inhibition",PfCRT^Ecu1110 [4]; [test solute] = 0.5 mM,66 ± 2.9 % PfCRTEcu1110 control
same,"Uptake of [3H]CQ (% PfCRTEcu1110 control), cis-inhibition",PfCRT^Ecu1110 [4]; [test solute] = 1 mM,57 ± 2.7 % PfCRTEcu1110 control
same,"Uptake of [3H]CQ (% PfCRTEcu1110 control), cis-inhibition",PfCRT^Ecu1110 [4]; [test solute] = 2 mM,45 ± 2.4 % PfCRTEcu1110 control
same,"PfCRT-mediated [3H]CQ transport, cis-inhibition (% PfCRTEcu1110 control)",PfCRT^Ecu1110 [4]; [test solute] = 0.5 mM,58 ± 0.5 % PfCRTEcu1110 control
same,"PfCRT-mediated [3H]CQ transport, cis-inhibition (% PfCRTEcu1110 control)",PfCRT^Ecu1110 [4]; [test solute] = 1 mM,52 ± 2.6 % PfCRTEcu1110 control
same,"PfCRT-mediated [3H]CQ transport, cis-inhibition (% PfCRTEcu1110 control)",PfCRT^Ecu1110 [4]; [test solute] = 2 mM,39 ± 2.1 % PfCRTEcu1110 control
same,"[3H]CQ transport (% PfCRTEcu1110 control), cis-inhibition, PfCRTEcu1110",PfCRT^Ecu1110 [4]; [test solute] = 0.5 mM,18 ± 0.2 % PfCRTEcu1110 control
same,"[3H]CQ transport (% PfCRTEcu1110 control), cis-inhibition, PfCRTEcu1110",PfCRT^Ecu1110 [4]; [test solute] = 1 mM,16 ± 0.1 % PfCRTEcu1110 control
same,"[3H]CQ transport (% PfCRTEcu1110 control), cis-inhibition, PfCRTEcu1110",PfCRT^Ecu1110 [4]; [test solute] = 2 mM,12 ± 0.3 % PfCRTEcu1110 control
same,"Uptake of [3H]CQ (% non-expressing oocyte control), trans-stimulation",non-expressing oocytes [5]; [test solute]i = 5 mM,100 ± 3.8 % non-expressing oocyte control
same,"Uptake of [3H]CQ (% non-expressing oocyte control), trans-stimulation",non-expressing oocytes [5]; [9],99 ± 3.7 % non-expressing oocyte control
same,"Uptake of [3H]CQ (% PfCRT3D7 control), trans-stimulation",PfCRT^3D7 [6]; [test solute]i = 5 mM,100 ± 2.2 % PfCRT3D7 control
same,"Uptake of [3H]CQ (% PfCRT3D7 control), trans-stimulation",PfCRT^3D7 [6]; [9],101 ± 2.1 % PfCRT3D7 control
same,"PfCRT-mediated [3H]CQ transport, trans-stimulation (% PfCRT3D7 control)",PfCRT^3D7 [6]; [10],98 ± 4.3 % PfCRT3D7 control
same,"PfCRT-mediated [3H]CQ transport, trans-stimulation (% PfCRT3D7 control)",PfCRT^3D7 [6]; [11],99 ± 3.4 % PfCRT3D7 control
same,"Uptake of [3H]CQ (% PfCRTDd2 control), trans-stimulation",PfCRT^Dd2 [7]; [test solute]i = 5 mM,99 ± 3.4 % PfCRTDd2 control
same,"Uptake of [3H]CQ (% PfCRTDd2 control), trans-stimulation",PfCRT^Dd2 [7]; [9],97 ± 4.3 % PfCRTDd2 control
same,"PfCRT-mediated [3H]CQ transport, trans-stimulation (% PfCRTDd2 control)",PfCRT^Dd2 [7]; [10],97 ± 2.1 % PfCRTDd2 control
same,"PfCRT-mediated [3H]CQ transport, trans-stimulation (% PfCRTDd2 control)",PfCRT^Dd2 [7]; [11],95 ± 3.8 % PfCRTDd2 control
same,"[3H]CQ transport (% PfCRTDd2 control), trans-stimulation, PfCRTDd2",PfCRT^Dd2 [7]; [12],97 ± 2.1 % PfCRTDd2 control
same,"[3H]CQ transport (% PfCRTDd2 control), trans-stimulation, PfCRTDd2",PfCRT^Dd2 [7]; [9],95 ± 3.8 % PfCRTDd2 control
same,"Uptake of [3H]CQ (% PfCRTEcu1110 control), trans-stimulation",PfCRT^Ecu1110 [8]; [test solute]i = 5 mM,99 ± 3.3 % PfCRTEcu1110 control
same,"Uptake of [3H]CQ (% PfCRTEcu1110 control), trans-stimulation",PfCRT^Ecu1110 [8]; [9],100 ± 2.2 % PfCRTEcu1110 control
same,"PfCRT-mediated [3H]CQ transport, trans-stimulation (% PfCRTEcu1110 control)",PfCRT^Ecu1110 [8]; [10],97 ± 4.9 % PfCRTEcu1110 control
same,"PfCRT-mediated [3H]CQ transport, trans-stimulation (% PfCRTEcu1110 control)",PfCRT^Ecu1110 [8]; [11],98 ± 3.0 % PfCRTEcu1110 control
same,"[3H]CQ transport (% PfCRTDd2 control), trans-stimulation, PfCRTEcu1110",PfCRT^Ecu1110 [8]; [12],29 ± 1.7 % PfCRTEcu1110 control
same,"[3H]CQ transport (% PfCRTDd2 control), trans-stimulation, PfCRTEcu1110",PfCRT^Ecu1110 [8]; [9],30 ± 1.4 % PfCRTEcu1110 control
same,"Uptake of [3H]CQ (% PfNT1 control), trans-stimulation",PfNT1; [test solute]i = 5 mM,99 ± 3.2 % PfNT1 control
same,"Uptake of [3H]CQ (% PfNT1 control), trans-stimulation",PfNT1; [9],100 ± 2.4 % PfNT1 control
